Measured values from patent US12391751B2, “Antibody against advanced glycation end products and use thereof” (Bloom Technology Corporation, priority 2018, dated 2025).

How the values were obtained:
[1] = Formation of singlet oxygen through photosensitizing effect, ESR with 4-OH-TEMP (Examples 21, 22); conditions: astaxanthin final concentration 2.5 mM; blue light
Method: 25 μL of GAL691 or Z-Lys(Z)-OH (10 mM, PBS solution), 12.5 μL of 4-hydroxy-2,2,6,6-tetramethylpiperidine (4-OH-TEMP; Tokyo Chemical Industry Co., Ltd., 400 mM, PBS solution), and 12.5 μL of PBS were mixed in a 0.6 mL microtube (Watson) to prepare a reaction solution. 4-OH-TEMP changes into a nitroxide radical by capturing singlet oxygen and is therefore often utilized in the detection of singlet oxygen using ESR (Nakamura et al., J. Clin. Biochem. Nutr., 2011, 49 (2), 87-95). The reaction solution was irradiated with light at UV 365 nm, blue 470 nm, green 530 nm, or red 630 nm for 1 hour using a portable LED light source (MeCan Imaging Inc.). Then, ESR measurement was performed using a portion (50 μL) of each reaction solution. The ESR measurement was carried out under the same conditions as in Example 10 except for some parameters. The changed measurement parameters are as follows: […]
In order to quantify the concentration of the formed nitroxide radical, the following analysis was conducted: the spectrum of the observed nitroxide radical was first simulated with SpinFit module in Xepr software (Bruker Corp.) to identify a radical species (g=2.0058, I=1, AN=17.05 G). Then, the spin concentration (μM) of the simulated nitroxide radical was determined with SpinCount module. […]

[2] = system: POD-labeled novel monoclonal antibody (SJ-5); experiment: Competitive ELISA of GAL691 and Lys-hydroxy-triosidine against SJ-5 (Example 18); type: binding, mouse; conditions: immobilized Glycer-AGEs-BSA; competitor 0.625 to 10 mg/mL
Method: A solution of BSA containing AGEs derived from glyceraldehyde (stock solution: 10 mg/mL PBS solution) prepared into 1 μg/mL in a coating solution was added at 100 μL/well to a 96-well microtiter plate (COSTAR) and incubated overnight at 4° C.
(§1) Each well after the immobilization treatment was washed three times with a washing solution (300 μL), and a blocking solution (200 μL) was added thereto and left at room temperature for 1 hour.
GAL691 (prepared in Example 16) and Lys-hydroxy-triosidine (prepared in Example 17) were each dissolved in a phosphate buffer solution (0.2 M, pH 7.4) to prepare a 10 mg/mL solution. Sample solutions of 2-fold dilution series from 0.625 to 10 mg/ml (5 points) were further prepared by dilution with a diluting solution. Dilution solutions were also prepared from a blank solution containing no sample in the same way as above. […]
Absorbance was measured at a dominant wavelength of 450 nm and a sub-wavelength of 650 nm with a microplate reader (Cytation 5, BioTek Instrument Inc.), and the absorbance at the sub-wavelength was subtracted from the absorbance at the dominant wavelength. Change in the absorbance of GAL691 and Lys-hydroxy-triosidine was indicated as relative values to the absorbance of the blank solution.

PB-1 antibody = experiment: Competitive ELISA of GAL691 and known AGEs against PB-1 (Example 31); type: binding, mouse; conditions: immobilized A-peak-BSA; competitor 0.04 to 2.5 mM; PB-1 0.1 μg/mL
Method: Competitive ELISA was conducted using the reagents described in Example 13. A solution of A-peak-BSA prepared into 1 μg/mL in a coating solution was added at 100 μL/well to a 96-well microtiter plate (Costar) and incubated overnight at 4° C.
as §1
GAL691 (prepared in Example 16), GLAP (prepared in Example 12), Lys-hydroxy-triosidine (prepared in Example 17), GA-pyridine (prepared in Example 28), GOLD (prepared in Example 29), and Z-Lys were each dissolved in a phosphate buffer solution (0.2 M, pH 7.4) to prepare a 100 mM solution. Then, a 10 mM solution was prepared by dilution 10-fold with a diluting solution containing BSA (1 mg/mL, FUJIFILM Wako Pure Chemical Corp.). Sample solutions of 4-fold dilution series of 0.04, 0.16, 0.63, and 2.5 mM were further prepared with a diluting solution containing a 10% (v/v) phosphate buffer solution and 1 mg/mL BSA. Ten-fold dilutions of a phosphate buffer solution with a diluting solution containing 1 mg/mL BSA were prepared as blank solutions containing no sample in the same way as above. A 0.1 μg/mL solution of the PB-1 antibody was prepared with a diluting solution containing 1 mg/mL BSA.
Each well treated with the blocking solution was washed three times with a washing solution (300 μL), and the sample solutions of 4-fold dilution series (50 μL each) and the PB-1 antibody dilution solution (50 μL) were added thereto, stirred with a plate mixer for 2 minutes, and then incubated at room temperature for 1 hour.
After the competitive reaction, each well was washed three times with a washing solution (300 μL), and peroxidase-labeled anti-mouse IgG (H+L) polyclonal antibody, F(ab′)2 fragment (Kirkegaard & Perry Laboratories, Inc.) diluted into 0.05 μg/mL with a diluting solution containing 1 mg/mL BSA was added at 100 μL/well and left standing at room temperature for 1 hour.
After washing three times with a washing solution (300 μL), a substrate solution (ELISA POD substrate TMB kit (Popular), Nacalai Tesque, Inc.) was added at 100 μL/well and incubated at room temperature for 10 minutes under light shielding. Then, color development was terminated by the addition of 2 N sulfuric acid (50 μL).
Absorbance was measured at a dominant wavelength of 450 nm and a sub-wavelength of 650 nm with a microplate reader (Cytation 5, BioTek Instrument Inc.), and the absorbance at the sub-wavelength was subtracted from the absorbance at the dominant wavelength. Change in the absorbance of GAL691, GLAP, Lys-hydroxy-triosidine, GA-pyridine, GOLD, and Z-Lys was indicated as relative values to the absorbance of the blank solution.

| SMILES | capture of singlet oxygen generated by GAL691 and light irradiation [1] | change in absorbance relative to blank (competition for SJ-5 binding) [2] | change in absorbance relative to blank (competition for PB-1 binding) (PB-1 antibody) |
| --- | --- | --- | --- |
| CC1=C(/C=C/C(C)=C/C=C/C(C)=C/C=C/C=C(C)/C=C/C=C(C)/C=C/C2=C(C)C(=O)[C@@H](O)CC2(C)C)C(C)(C)C[C@H](O)C1=O [astaxanthin] | captured |  |  |
| CC(=O)NC(CCCCNCc1cc(O)c[n+](CCCCC(NC(C)=O)C(=O)O)c1)C(=O)O (stereo not drawn) [Lys-hydroxy-triosidine] |  | no reduction in absorbance was observed | no reduction in absorbance was observed |
